Experimental data reported in US4965280A, “Antifungal carbinols” (E. I. Du Pont de Nemours and Company, priority 1989, dated 1990).
≈ marks a conversion by molar mass, not a printed value. Where two headings read alike, the source gives them in different places.

Columns and labels:
[1] = tested on: Puccinia recondita; test: Example G wheat leaf rust; type: in vivo; conditions: read-out: disease control rating, Ex. G
[2] = tested on: Plasmorpara viticola; test: Example I grape downy mildew; type: in vivo; conditions: read-out: disease control rating, Ex. I
Summary of the method: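 Compounds were dissolved in acetone (6% of final volume) and suspended at 100 or 20 ppm in purified water with 250 ppm TREM 014 surfactant (polyhydric alcohol esters). Grape seedlings were sprayed with this suspension to run-off.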

[3] = tested on: Venturia inaequalis; test: Example A apple scab; type: in vivo; conditions: read-out: disease control rating, Ex. A
Summary of the method: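 First, compounds are taken up in acetone amounting to 6% of the final volume. Next, they are suspended in purified water with 250 ppm TREM 014 at 100 or 20 ppm. Finally, seedlings of apple are sprayed until run-off.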

[4] = tested on: Botrytis cinerea; test: Example C bean grey mold; type: in vivo; conditions: Botrytis cinerea, 24 h, read-out: disease control rating, Ex. C
Summary of the method: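 At 20 or 100 ppm, each compound was applied as an aqueous suspension (acetone 6% final; TREM 014 250 ppm) sprayed onto young broad bean plants to the point of run-off.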

[5] = tested on: Pythium aphanadermatum; test: Example J cucumber damping off; type: in vivo; conditions: Pythium, 336 h; 5 kg/ha; read-out: disease control rating, Ex. J
Description: […] Seeds and soil were then inoculated with a mixture of sand, cereal and mycelium of the fungus Pythium aphanadermatum, causal agent of cucumber damping off, and incubated in a growth chamber at 30° C. for 14 days. Disease ratings were then made.

[6] = tested on: Cercosporidium personatum; test: Example B Peanut Late Leafspot; type: in vivo; conditions: Nothopassalora personata, read-out: disease control rating, Ex. B
Summary of the method: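 Dose 100 or 20 ppm; vehicle acetone 6% v/v final in water + 250 ppm surfactant; applied by spraying peanut seedlings to run-off.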

[7] = tested on: Erysiphe graminis f. sp. tritici; test: Example D wheat powdery mildew; type: in vivo; conditions: Blumeria graminis, 144 h, read-out: disease control rating, Ex. D
Summary of the method: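 First, compound taken up in acetone, 6% of the end volume. Next, suspended in water with 250 ppm polyhydric alcohol esters at 100 or 20 ppm. Last, applied to wheat seedlings until run-off.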

[8] = tested on: Rhizoctonia solani; test: Example F rice sheath blight; type: in vivo; conditions: Rhizoctonia solani, 144 h, read-out: disease control rating, Ex. F
Summary of the method: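 Application rates were 100 or 20 ppm, delivered as a foliar spray to the point of run-off on rice seedlings. The formulation used 6% acetone in water with 250 ppm surfactant.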

[9] = tested on: Rhizoctonia solani; test: Example K cotton blight; type: in vivo; conditions: 336 h, 5 kg/ha, read-out: disease control rating, Ex. K
Description: […] Seeds and soil were then inoculated with a mixture of sand, cereal and mycelium of the fungus Rhizoctonia solani, causal agent of cotton blight, and incubated in a growth chamber at 30° C. for 14 days. Disease ratings were then made.

[10] = tested on: Phytophthora infestans; test: whole plant or invertebrate; type: in vivo; conditions: Phytophthora infestans, in Solanum lycopersicum, read-out: disease control rating, Ex. H, 100 PPM
[11] = tested on: Sclerotium rolfsii; test: Example M southern blight; type: in vivo; conditions: Agroathelia rolfsii, 336 h; 5 kg/ha; read-out: disease control rating, Ex. M
Description: […] Seeds and soil were then inoculated with a mixture of sand, cereal and mycelium of the fungus Sclerotium rolfsii, causal agent of sourthern blight, and incubated in a growth chamber at 30° C. for 14 days. Disease ratings were then made.

[12] = tested on: Candida albicans ATCC 11651; test: In vitro antifungal MIC, microtiter broth dilution; conditions: Candida albicans, ATCC11651, 24 h, read-out: MIC values, C. albicans, 30°, 24 hours
[13] = tested on: Pyricularia oryzae; test: whole plant or invertebrate; type: in vivo; conditions: Pyricularia oryzae, 120 h; for pest or weed control at 100 ppm: read-out: disease control rating, Ex. E, 100 PPM
[14] = tested on: Candida albicans ATCC 11651; test: In vivo systemic Candida infection in mice, primary assay; design: species or system Candida albicans; CF-1 female mice; conditions: Candida albicans, 150 mg/kg per day, read-out: % Survival
Summary of the method: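 CF-1 female mice (20 g, 10 per group) were infected IV with 0.2 ml of 1×10^7/ml C. albicans ATCC 11651, then given test compound subcutaneously at 50 or 150 mg/kg/day at 1 and 6 h post-infection and once daily for three more days. Survival was followed for 21 days against infected untreated mice; ≥70% protection at 14 days was scored active.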

[15] = tested on: Aspergillus fumigatus ATCC 28214; test: In vitro antifungal MIC, microtiter broth dilution; conditions: Aspergillus fumigatus, ATCC28214, 24 h, read-out: MIC values, A. fumigatus, 30°, 24 hours

| SMILES | pest or weed control at 100 ppm [2] [%] | pest or weed control at 100 ppm [4] [%] | pest or weed control at 5000 g/ha [5] [%] | pest or weed control at 100 ppm [8] [%] | pest or weed control at 5000 g/ha [9] [%] | pest or weed control at 100 ppm [10] [%] | pest or weed control at 5000 g/ha [11] [%] | MIC [12] [µg/mL] | pest or weed control at 100 ppm [13] [%] | responders at 150 mg/kg ([14]; ATCC11651, 168 h, day 7) [%] | responders at 150 mg/kg ([14]; ATCC11651, 336 h, day 14) [%] | responders at 150 mg/kg ([14]; ATCC11651, 504 h, day 21) [%] | MIC [15] [µg/mL] | pest or weed control at 100 ppm [1] [%] | pest or weed control at 100 ppm [3] [%] | pest or weed control at 100 ppm [6] [%] | pest or weed control at 100 ppm [7] [%] | other results |
| --- | --- | --- | --- | --- | --- | --- | --- | --- | --- | --- | --- | --- | --- | --- | --- | --- | --- | --- |
| C=C(c1cccc(F)c1)C(O)(Cn1cncn1)c1ccc(Cl)cc1Cl (stereo not drawn) [Example 16, 2-(2,4-Dichlorophenyl)-3-(3-fluorophenyl)-1-(1H-1,2,4-triazol-1-yl)-3-buten-2-ol] | 23 | 46 | 0 | 0 | 0 | 0 | 0 | 0.03 (≈ 0.0793 µM) | 0 | 100 | 100 | 100 | 6.3 (≈ 16.7 µM) | – | – | – | – | pest or weed control at 20 ppm ([1]; 20 PPM): 100%; pest or weed control at 20 ppm ([3]; 20 PPM): 74%; pest or weed control at 20 ppm ([4]; 20 PPM): 27%; pest or weed control at 20 ppm ([6]; 20 PPM): 99%; pest or weed control at 20 ppm ([7]; 20 PPM): 67%; pest or weed control at 20 ppm ([8]; 20 PPM): 0%; pest or weed control at 20 ppm ([13]; read-out: disease control rating, Ex. E, 20 PPM): 0% |
| C=C(c1ccc(F)cc1F)C(O)(Cn1cncn1)c1ccc(F)cc1 (stereo not drawn) [Example 94, 2-(4-Fluorophenyl)-3-(2,4-difluorophenyl)-1-(1H-1,2,4-triazol-1-yl)-3-buten-2-ol] | 0 | 96 | 0 | 36 | 0 | 0 | – | 0.4 (≈ 1.16 µM) | 78 | 100 | 40 | 10 | 50 (≈ 145 µM) | 100 | 86 | 61 | 98 | – |
| C=C(c1ccccc1)C(O)(Cn1cncn1)c1ccccc1 (stereo not drawn) [Example 608] | 0 | 98 | 0 | 81 | 0 | 0 | – | 0.4 (≈ 1.37 µM) | 4 | 100 | 70 | 20 | 6.3 (≈ 21.6 µM) | 100 | 87 | 100 | 98 | – |
| C=C(c1ccc(F)cc1)C(O)(Cn1cncn1)c1ccc(Cl)cc1 (stereo not drawn) [Example 3] | 0 | 93 | 0 | 93 | 0 | 0 | – | ≤ 0.4 | 5 | 100 | 100 | 60 | 50 (≈ 145 µM) | 100 | 100 | 100 | 93 | – |
| C=C(c1ccc(Cl)cc1Cl)C(O)(Cn1cncn1)c1ccc(F)cc1 (stereo not drawn) [Example 99] | 83 | 89 | 0 | 61 | 0 | 0 | – | 0.05 (≈ 0.132 µM) | 98 | 100 | 100 | 40 | 6.3 (≈ 16.7 µM) | 100 | 100 | 100 | 83 | – |
| C=C(c1ccc(Cl)cc1)C(O)(Cn1cncn1)c1ccc(F)cc1 (stereo not drawn) [Example 25] | 0 | 96 | 0 | 48 | – | 0 | 35 | 1.6 (≈ 4.65 µM) | 31 | 100 | 100 | 50 | 25 (≈ 72.7 µM) | 97 | 100 | 100 | 91 | – |
| C=C(c1ccc(Cl)cc1)C(O)(Cn1cncn1)c1ccccc1Cl (stereo not drawn) [Example 671] | 84 | 92 | 0 | 100 | – | 0 | 0 | 0.03 (≈ 0.0833 µM) | 84 | 100 | 100 | 60 | 0.2 (≈ 0.555 µM) | 100 | 100 | 100 | 94 | – |
| C=C(c1ccccc1Cl)C(O)(Cn1cncn1)c1ccc(F)cc1 (stereo not drawn) [Example 32] | 98 | 98 | 0 | 33 | 0 | 0 | – | ≤ 0.4 | 97 | 100 | 90 | 50 | 1.6 (≈ 4.65 µM) | 100 | 100 | 100 | 95 | – |
| C=C(c1ccccc1C(F)(F)F)C(O)(Cn1cncn1)c1ccc(F)cc1 (stereo not drawn) [Example 724] | 0 | 95 | 0 | 100 | – | 0 | – | 0.4 (≈ 1.06 µM) | 63 | 100 | 90 | 40 | 0.4 (≈ 1.06 µM) | 100 | 100 | 100 | 100 | – |
